The values that follow are results of earlier work, collected in US8618022B2, “Process for preparing an aqueous suspension of an organic pesticide compound” (priority 2009, dated 2013).

In brackets after ≈: the same amount, converted by molar mass.

The conditions of the first series: at 20° C.
For the compound `COC(=O)N(OC)c1ccccc1COc1ccn(-c2ccc(Cl)cc2)n1` [pyraclostrobin, methyl {2-[1-(4-chlorophenyl)pyrazol-3-yloxymethyl]phenyl}-(methoxy)carbamate], the solubility in water is under 2 mg/L.

Still in this series, the particulars now being: deionised water at 20° C.
`ClC1=C(Cl)C2(Cl)C3C4C=CC(C4)C3C1(Cl)C2(Cl)Cl` (stereo not shown) [aldrin]: the water solubility is <<1 mg/l. As to `Cc1c(COC(=O)[C@@H]2[C@H](/C=C(\Cl)C(F)(F)F)C2(C)C)cccc1-c1ccccc1` (racemic) [bifenthrin], the water solubility is 0.1 mg/L (≈ 0.236 µM). Take `CCOP(=S)(OCC)Oc1nc(Cl)c(Cl)cc1Cl` [chlorpyriphos]: the water solubility was 2 mg/L (≈ 5.7 µM). On to `CC(C)OC(=O)C(O)(c1ccc(Br)cc1)c1ccc(Br)cc1` [bromopropylate], for which the water solubility was under 5 mg/L.

As for `CCOP(=S)(OCC)ON=C(C#N)c1ccccc1Cl` [chlorphoxim], the water solubility is 2 mg/L (≈ 6.01 µM). For `O=C(Nc1ccc(F)cc1)c1cccc(Oc2cccc(C(F)(F)F)c2)n1` [picolinafen], the water solubility is under 0.1 mg/L. On to `COP(=S)(OC)Oc1cc(Cl)c(Br)cc1Cl` [bromophos], for which the water solubility was 40 mg/L (≈ 109 µM). On to `CO/C=C(/C(=O)OC)c1ccccc1COc1cccc(C(F)(F)F)n1` [picoxystrobin], for which the water solubility is 3.1 mg/L (≈ 8.44 µM). On to `CC1(C)CCC(Cc2ccc(Cl)cc2)C1(O)Cn1cncn1` (stereo not shown) [metconazol], for which the water solubility was 1400 mg/L (≈ 4380 µM). In the case of `CC(C)OC(=O)c1cc(C(=O)OC(C)C)cc([N+](=O)[O-])c1` [nitrothal-isopropyl], the water solubility was 0.4 mg/L (≈ 1.35 µM).

Turning to `CCCCN(CC)c1c([N+](=O)[O-])cc(C(F)(F)F)cc1[N+](=O)[O-]` [benfluralin], the water solubility was under 1 mg/L. `COP(=S)(OC)SCN1C(=O)c2ccccc2C1=O` [phosmet]: the water solubility is 25 mg/L (≈ 78.8 µM).
